# Like-named read-outs stand apart in the source and are kept apart here. Numbered stars: 1 amine (or outer) side, 2 acyl side, 3 side chain; on linkers, the order of the positions; unused ones are H or OH. Bridge positions count the residues as written; N and C are the ends. Square brackets hold non-standard residues; d marks the D form. Peptide text beside a SMILES is read from it. * marks the point of attachment. Trp(6-F) = N[C@@H](Cc1c[nH]c2cc(F)ccc12)C(=O)O; NH(CH2)9CO = O=C(CCCCCCCCCN[*:1])[*:2]; hArg = N=C(N)NCCCC[C@H](N)C(=O)O; Cit = NC(=O)NCCC[C@H](N)C(=O)O; Pentanoyl = CCCCC(=O)*
# How the values were obtained:
# PCSK9 = PCSK9 (Homo sapiens, UniProt Q8NBP7); assay: PCSK9/EGF(A) TR-FRET binding assay; conditions: for IC50: TR-FRET, read-out: PCSK9/EGF(A) IC50
# PCSK9, sequence (Q8NBP7 153-692): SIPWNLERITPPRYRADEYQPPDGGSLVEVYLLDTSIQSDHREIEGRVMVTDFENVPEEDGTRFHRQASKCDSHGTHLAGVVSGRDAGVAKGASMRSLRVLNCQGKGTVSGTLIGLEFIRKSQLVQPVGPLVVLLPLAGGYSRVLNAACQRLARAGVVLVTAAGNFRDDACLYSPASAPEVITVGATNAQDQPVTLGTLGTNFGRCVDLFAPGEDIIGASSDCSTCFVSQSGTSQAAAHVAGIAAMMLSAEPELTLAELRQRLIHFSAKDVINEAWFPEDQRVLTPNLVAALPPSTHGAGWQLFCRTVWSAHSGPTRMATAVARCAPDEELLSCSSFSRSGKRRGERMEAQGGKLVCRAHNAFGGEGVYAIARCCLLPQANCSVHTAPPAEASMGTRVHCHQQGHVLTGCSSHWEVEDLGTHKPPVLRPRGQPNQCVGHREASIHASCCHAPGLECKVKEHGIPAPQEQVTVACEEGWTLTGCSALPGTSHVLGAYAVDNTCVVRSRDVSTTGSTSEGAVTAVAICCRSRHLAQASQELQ
# PCSK9, sequence (Q8NBP7 31-152 partner limits assumed): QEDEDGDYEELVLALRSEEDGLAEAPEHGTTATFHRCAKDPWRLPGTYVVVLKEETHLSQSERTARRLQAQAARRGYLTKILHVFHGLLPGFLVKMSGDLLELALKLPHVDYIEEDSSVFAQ
# Method: (§1) The former was based on a TF-FRET assay to measure the association of the EGF(A) domain of the LDLR to PCSK9 (“PCSK9/EGF(A) binding assay”) whilst the latter was based on a TR-FRET assay to measure binding of Ab20 to PCSK9Δhelix (“PCSK9Δhelix/Ab20 binding assay”).
# (§2) The ability of compounds to inhibit binding to PCSK9 was evaluated with a panel of time-resolved fluorescence resonance energy transfer (TR-FRET) binding assays. […] The PCSK9Δhelix/Ab20 binding assay evaluated the ability of compounds to compete with Ab20 for binding to the N-terminal groove region in a His-tagged, PCSK9Δhelix construct. […] Signal generation in the PCSK9 binding assays was dependent upon the binding interaction to bring into close proximity the His-tag on the PCSK9 and the Fc-tag on the ligand. Anti-His-APC was bound to the His-tag, and anti-Fc-europium was bound to the Fc-tag. When these two antibodies were in close proximity and were irradiated with light at 340 nm, the europium was excited and emitted energy at 615 nm. This energy was taken up by the APC and was emitted as light at 665 nm. Compounds that competed with the ligand reduced the energy transfer and thus the emission at 665 nm. In the His-EGFA-Fc molecule in the counterscreen, the two tags were always in close proximity, thus any reduction in emission at 665 nm was due to interference with the detection system.
# (§3) Compounds were solubilized and dilutions were prepared in DMSO. […] The plate was centrifuged to mix the well contents and allowed to incubate for 30 min. […] The TR-FRET signal was read on a ViewLux reader (PerkinElmer) with excitation at 340 nm and emission at 615 and 665 nm with a 50-μs time delay between excitation and measurement of emission. The TR-FRET ratio was calculated as the fluorescence emission at 665 nm divided by the fluorescence emission at 615 nm. The normalized TR-FRET ratios were plotted as a function of the compound concentrations, and the IC50 values were determined using a 4-parameter logistic regression.
# (§4) In black 1536-well assay plates (MaKO, Aurora® Microplates, Whitefish, Mont.), 40 nL of peptide in DMSO were preincubated with 2 μL His-tagged PCSK9 plus anti-His-allophycocyanin in assay buffer (50 mM Tris-HCl, pH 7.5, 150 mM NaCl, 2 mM CaCl2, 0.01% Tween®-20, 0.1% bovine gamma globulins, and protease inhibitor cocktail) for 30 min. Then 2 μL of Fc-tagged ligand and anti-Fc-europium in assay buffer were added and allowed to incubate for 2 h.
# PCSK9Δhelix = target: T1, PCSK9Δhelix (Homo sapiens, UniProt Q8NBP7); assay: PCSK9Δhelix/Ab20 TR-FRET binding assay; conditions: for IC50: TR-FRET, read-out: PCSK9Δhelix/Ab20 IC50
# T1 construct: Human PCSK9 construct M1-Q692 with an engineered TEV site (residue deletion Y166, R167); made in house; host or cells: CHO
# T1 sequence (Q8NBP7 with tags, fused parts or gaps limits assumed): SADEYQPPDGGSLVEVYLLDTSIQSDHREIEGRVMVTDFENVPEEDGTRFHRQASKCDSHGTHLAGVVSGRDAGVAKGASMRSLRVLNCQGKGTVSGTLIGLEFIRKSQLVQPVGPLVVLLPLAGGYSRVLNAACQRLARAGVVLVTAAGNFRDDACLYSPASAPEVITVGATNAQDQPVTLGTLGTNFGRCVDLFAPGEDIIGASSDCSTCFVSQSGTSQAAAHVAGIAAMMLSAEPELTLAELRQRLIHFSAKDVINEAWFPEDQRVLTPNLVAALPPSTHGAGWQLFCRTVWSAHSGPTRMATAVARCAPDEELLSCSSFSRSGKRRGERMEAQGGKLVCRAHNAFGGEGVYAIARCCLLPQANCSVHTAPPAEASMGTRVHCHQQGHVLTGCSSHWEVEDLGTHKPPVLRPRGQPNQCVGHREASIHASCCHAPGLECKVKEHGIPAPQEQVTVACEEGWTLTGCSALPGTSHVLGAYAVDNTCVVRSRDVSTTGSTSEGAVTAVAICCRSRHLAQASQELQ
# T1 sequence (Q8NBP7 31-152 partner limits assumed): as the sequence (Q8NBP7 31-152 partner limits assumed) above
# His-EGF(A)-Fc = His-EGF(A)-Fc TR-FRET counterscreen
# Method: as §1, §2, §3, §4
# [1] = Table 8D, disulfide-cyclized extension peptides
# [2] = TR-FRET counterscreen, Table 8D, * = some inhibition at highest concentrations, not sufficient to fit an IC50
# [3] = TR-FRET counterscreen, Table 8E, additional compounds
Molecule,IC50 (PCSK9; [1]) [µM],IC50 (PCSK9Δhelix; [1]) [µM],IC50 (His-EGF(A)-Fc; [2]) [µM],"IC50 (PCSK9; Table 8E, additional compounds) [µM]","IC50 (PCSK9Δhelix; Table 8E, additional compounds) [µM]",IC50 (His-EGF(A)-Fc; [3]) [µM],IC50 (PCSK9; Example 7) [µM],also measured
CC[C@H](C)[C@@H]1NC(=O)[C@H](CCCNC(N)=O)NC(=O)[C@H](CCC(N)=O)NC(=O)[C@H](CC(C)C)NC(=O)[C@H](CC(N)=O)NC(=O)[C@H](Cc2c[nH]c3ccccc23)NC(=O)[C@@H]2CCCN2C(=O)[C@H]([C@@H](C)CC)NC(=O)[C@H](Cc2ccccc2)NC(=O)[C@@H](NC(=O)CNC(=O)[C@H](CO)NC(C)=O)CSSC[C@@H](C(N)=O)NC(=O)[C@@H]2CCCN2C(=O)[C@H](CC(C)C)NC(=O)CNC1=O [Compound 36] (Ac-SGCFIPWNLQ[Cit]IGLPC-NH2; disulfide 3-16),> 50,> 50,> 50,,,,,
CCCCC(=O)N[C@@H](Cc1c[nH]c2ccccc12)C(=O)N[C@@H](CC(N)=O)C(=O)N[C@@H](CC(C)C)C(=O)N[C@@H](CCCCN)C(=O)N[C@@H](CCCNC(=N)N)C(=O)N[C@H](C(=O)NCC(=O)N[C@@H](CC(C)C)C(=O)N[C@@H](CC(C)C)C(=O)N[C@@H](CCCNC(=N)N)C(N)=O)[C@@H](C)CC [Compound 159] (Pentanoyl-WNLKRIGLLR-NH2),,,,≥ 50,6.6,≥ 50,,
CC[C@H](C)[C@@H]1NC(=O)[C@H](CCCNC(=N)N)NC(=O)[C@H](CCC(N)=O)NC(=O)[C@H](CC(C)C)NC(=O)[C@H](CC(N)=O)NC(=O)[C@H](Cc2c[nH]c3ccccc23)NC(=O)[C@@H]2CCCN2C(=O)[C@@H](CC(C)C)NC(=O)[C@H](CCCNC(=N)N)NC(=O)[C@@H](NC(C)=O)CSSC[C@@H](C(N)=O)NC(=O)[C@@H]2CCCN2C(=O)[C@H](CC(C)C)NC(=O)CNC1=O [Compound 108] (Ac-CR[dL]PWNLQRIGLPC-NH2; disulfide 1-14),> 50,28.2,> 50,,,,,
CC[C@H](C)[C@@H]1NC(=O)[C@H](CCCNC(=N)N)NC(=O)[C@H](CCC(N)=O)NC(=O)[C@H](CC(C)C)NC(=O)[C@H](CC(N)=O)NC(=O)[C@H](C)NC(=O)[C@@H]2CCCN2C(=O)[C@H](CC(C)C)NC(=O)[C@H](CCCNC(=N)N)NC(=O)[C@@H](NC(C)=O)CSSC[C@@H](C(N)=O)NC(=O)[C@@H]2CCCN2C(=O)[C@H](CC(C)C)NC(=O)CNC1=O [Compound 76] (Ac-CRLPANLQRIGLPC-NH2; disulfide 1-14),> 50,49.5,> 50,,,,,
Ac-WNLVRIGL-NH2 [Compound 120],,,,,,,> 50,"IC50 (PCSK9Δhelix; Example 7): ≥ 49.5 µM; IC50 (His-EGF(A)-Fc; counterscreen, Example 7): > 50 µM"
Ac-DLMPWNLVRIALLR-NH2 [Compound 57],,,,,,,> 50,"IC50 (PCSK9Δhelix; Example 7): > 49.5 µM; IC50 (His-EGF(A)-Fc; counterscreen, Example 7): > 50 µM"
"CC[C@H](C)[C@H](NC(=O)[C@H](CCCCNC(=N)N)NC(=O)[C@@H](NC(=O)[C@H](CC(C)C)NC(=O)[C@H](CC(N)=O)NC(=O)[C@@H](N)Cc1c[nH]c2ccccc12)C(C)C)C(=O)NCC(=O)N[C@@H](CC(C)C)C(=O)N[C@@H](CC(C)C)C(=O)N[C@@H](CCC(N)=O)C(N)=O [Compound 237, WNLV(homoR)IGLLQ-NH2] (H-WNLV[hArg]IGLLQ-NH2)",,,,8.8,0.33,46,,
CC[C@H](C)[C@@H]1NC(=O)[C@H](CCCNC(=N)N)NC(=O)[C@H](CCCCN)NC(=O)[C@H](CC(C)C)NC(=O)[C@H](CC(N)=O)NC(=O)[C@H](Cc2c[nH]c3ccccc23)NC(=O)[C@@H](NC(=O)CNC(=O)[C@H](CO)NC(=O)CNC(=O)CNC(=O)[C@@H](NC(=O)[C@H](Cc2c[nH]c3ccccc23)NC(=O)[C@H](CC(=O)O)NC(=O)[C@H](CC(C)C)NC(=O)[C@H](Cc2ccc(O)cc2)NC(=O)[C@H](CCC(=O)O)NC(=O)[C@H](CCC(=O)O)NC(=O)[C@H](Cc2c[nH]c3ccccc23)NC(=O)[C@H](CO)NC(=O)[C@@H](NC(=O)[C@H](Cc2ccccc2)NC(=O)[C@@H](NC(=O)[C@@H](NC(C)=O)[C@@H](C)O)C(C)C)[C@@H](C)O)C(C)C)CSSC[C@@H](C(N)=O)NC(=O)CNC(=O)[C@H](CCC(N)=O)NC(=O)[C@H](CO)NC(=O)CNC1=O [Compound 13] (Ac-TVFTSWEEYLDWVGGSGCWNLKRIGSQGC-NH2; disulfide 18-29),,,,,,,0.01,"inhibition in the PCSK9/EGF(A) binding assay (PCSK9): potent inhibitors; inhibition in the PCSK9Δhelix/Ab20 binding assay (PCSK9Δhelix): potent inhibitors; IC50 (PCSK9Δhelix; Example 7): 0.001 µM; IC50 (His-EGF(A)-Fc; counterscreen, Example 7): > 50 µM"
CCCCC(=O)N[C@@H](Cc1c[nH]c2ccccc12)C(=O)N[C@@H](CC(N)=O)C(=O)N[C@@H](CC(C)C)C(=O)N[C@H](C(=O)N[C@@H](CCCNC(=N)N)C(=O)N[C@H](C(=O)NCC(=O)N[C@@H](CC(C)C)C(=O)N[C@@H](CC(C)C)C(=O)N[C@@H](CCCNC(=N)N)C(=O)O)[C@@H](C)CC)C(C)C [Compound 152] (Pentanoyl-WNLVRIGLLR-OH),,,,43,14,≥ 50,,
CC[C@H](C)[C@@H]1NC(=O)[C@H](CCCNC(=N)N)NC(=O)[C@H](C)NC(=O)[C@H](CC(C)C)NC(=O)[C@H](CC(N)=O)NC(=O)[C@H](Cc2c[nH]c3ccccc23)NC(=O)[C@H](CC(C)C)NC(=O)[C@@H](NC(=O)[C@H](Cc2ccccc2)NC(C)=O)CSSC[C@@H](C(=O)N[C@@H](Cc2c[nH]c3ccccc23)C(=O)N[C@@H](Cc2ccccc2)C(N)=O)NC(=O)[C@H](CCC(N)=O)NC(=O)[C@H](CO)NC(=O)CNC1=O [Compound 88] (Ac-FCLWNLARIGSQCWF-NH2; disulfide 2-13),,7.46,> 50,,,,17.9,
CC[C@H](C)[C@@H]1NC(=O)[C@H](CCCNC(=N)N)NC(=O)[C@H](CCC(N)=O)NC(=O)[C@H](CC(C)C)NC(=O)[C@H](CC(N)=O)NC(=O)[C@H](Cc2c[nH]c3ccccc23)NC(=O)[C@@H]2CCCN2C(=O)[C@H](CC(C)C)NC(=O)[C@H](CCCNC(=N)N)NC(=O)[C@@H](NC(C)=O)CSSC[C@@H](C(N)=O)NC(=O)[C@H]2CCCN2C(=O)[C@H](CC(C)C)NC(=O)CNC1=O [Compound 99] (Ac-CRLPWNLQRIGL[dP]C-NH2; disulfide 1-14),> 50,1.3,> 50,,,,,
CC[C@H](C)[C@@H]1NC(=O)[C@H](CCCNC(=N)N)NC(=O)[C@H](CCC(N)=O)NC(=O)[C@H](CC(C)C)NC(=O)[C@H](CC(N)=O)NC(=O)[C@H](Cc2c[nH]c3ccccc23)NC(=O)[C@@H]2CCCN2C(=O)[C@H](CC(C)C)NC(=O)[C@H](CCCNC(=N)N)NC(=O)[C@@H](NC(=O)CNC(=O)[C@H](CO)NC(=O)CNC(=O)[C@@H](NC(=O)[C@H](Cc2c[nH]c3ccccc23)NC(=O)[C@H](CC(=O)O)NC(=O)[C@H](CC(C)C)NC(=O)[C@H](Cc2ccc(O)cc2)NC(=O)[C@H](CCC(=O)O)NC(=O)[C@H](CCC(=O)O)NC(=O)[C@H](Cc2c[nH]c3cc(F)ccc23)NC(=O)[C@H](CO)NC(=O)[C@@H](NC(=O)[C@H](Cc2ccccc2)NC(=O)[C@@H](NC(=O)[C@@H](NC(C)=O)[C@@H](C)O)C(C)C)[C@@H](C)O)C(C)C)CSSC[C@@H](C(N)=O)NC(=O)[C@@H]2CCCN2C(=O)[C@H](CC(C)C)NC(=O)CNC1=O [Compound 241] (Ac-TVFTS[Trp(6-F)]EEYLDWVGSGCRLPWNLQRIGLPC-NH2; disulfide 17-30 (inferred)),,,,1.6,0.1,≥ 50,,
Ac-DLMPWNLVRIG-NH2 [Compound 48],,,,,,,> 50,"IC50 (PCSK9Δhelix; Example 7): ≥ 49.5 µM; IC50 (His-EGF(A)-Fc; counterscreen, Example 7): > 50 µM"
CCCCC(=O)N[C@@H](Cc1c[nH]c2ccccc12)C(=O)N[C@@H](CC(N)=O)C(=O)N[C@@H](CC(C)C)C(=O)N[C@H](C(=O)N[C@@H](CCCNC(=N)N)C(=O)N[C@H](C(=O)NCC(=O)N[C@@H](CC(C)C)C(=O)N[C@H](C(=O)N[C@@H](CCCNC(=N)N)C(=O)O)[C@@H](C)O)[C@@H](C)CC)C(C)C [Compound 176] (Pentanoyl-WNLVRIGLTR-OH),,,,≥ 50,18,≥ 50,,
Ac-GGMPWNLVRIGLLR-NH2 [Compound 125],,,,≥ 50,7,≥ 50,,
Ac-TVFTSWEEYLDWVGSGGKLWNLGRV-NH2 [Compound 9],,,,,,,0.39,"IC50 (PCSK9Δhelix; Example 7): 0.065 µM; IC50 (His-EGF(A)-Fc; counterscreen, Example 7): > 50 µM"
CC[C@H](C)[C@@H]1NC(=O)[C@H](CCCNC(=N)N)NC(=O)[C@H](CCCCN)NC(=O)[C@H](CC(C)C)NC(=O)[C@H](CC(N)=O)NC(=O)[C@H](Cc2c[nH]c3ccccc23)NC(=O)[C@@H](NC(C)=O)CSSC[C@@H](C(=O)N[C@@H](Cc2c[nH]c3ccccc23)C(N)=O)NC(=O)CNC(=O)[C@H](CCC(N)=O)NC(=O)[C@H](CO)NC(=O)CNC1=O [Compound 39] (Ac-CWNLKRIGSQGCW-NH2; disulfide 1-12),> 50,37.5,> 50,,,,,
CC(=O)N[C@H]1CSSC[C@@H](C(N)=O)NC(=O)CCCCCCCCCNC(=O)[C@H](CCCNC(=N)N)NC(=O)[C@H](CCC(N)=O)NC(=O)[C@H](CC(C)C)NC(=O)[C@H](CC(N)=O)NC(=O)[C@H](Cc2c[nH]c3ccccc23)NC(=O)[C@@H]2CCCN2C(=O)[C@H](CC(C)C)NC(=O)[C@H](CCCNC(=N)N)NC1=O [Compound 84] (Ac-CRLPWNLQR[NH(CH2)9CO]C-NH2; disulfide 1-11),> 50,> 50,> 50,,,,,inhibition in the PCSK9Δhelix/Ab20 binding assay (PCSK9Δhelix): removes inhibition
